Patent US8951752B2, “N-demethyase genes and uses thereof” (priority 2011, dated 2015)

Experiments:
[1] = target: T1, N-demethylase (Ndm: NdmA and NdmB subunits) (Pseudomonas putida, UniProt H9N289+H9N290); experiment: Methylxanthine N-demethylase activity assay with purified Ndm plus partially purified Ccr; type: biochemical, Pseudomonas putida CBB5; details: for Relative N-demethylase activity: relative to paraxanthine
T1 construct: lane 3, natural Ndm purified from P. putida CBB5; made in house; host or cells: purified from the natural strain Pseudomonas putida CBB5 (DEAE, Phenyl and Q Sepharose); not recombinant
T1 sequence (H9N289 1-351): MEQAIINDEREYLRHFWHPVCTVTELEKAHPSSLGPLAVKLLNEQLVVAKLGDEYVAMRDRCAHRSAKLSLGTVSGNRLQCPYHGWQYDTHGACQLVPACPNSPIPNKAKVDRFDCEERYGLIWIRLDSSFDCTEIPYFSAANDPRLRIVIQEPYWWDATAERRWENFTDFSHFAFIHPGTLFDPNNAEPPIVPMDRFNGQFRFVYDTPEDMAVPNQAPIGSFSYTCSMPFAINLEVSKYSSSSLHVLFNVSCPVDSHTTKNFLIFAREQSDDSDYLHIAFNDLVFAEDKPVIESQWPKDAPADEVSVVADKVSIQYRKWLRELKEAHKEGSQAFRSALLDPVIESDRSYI
T1 sequence (H9N290 1-355): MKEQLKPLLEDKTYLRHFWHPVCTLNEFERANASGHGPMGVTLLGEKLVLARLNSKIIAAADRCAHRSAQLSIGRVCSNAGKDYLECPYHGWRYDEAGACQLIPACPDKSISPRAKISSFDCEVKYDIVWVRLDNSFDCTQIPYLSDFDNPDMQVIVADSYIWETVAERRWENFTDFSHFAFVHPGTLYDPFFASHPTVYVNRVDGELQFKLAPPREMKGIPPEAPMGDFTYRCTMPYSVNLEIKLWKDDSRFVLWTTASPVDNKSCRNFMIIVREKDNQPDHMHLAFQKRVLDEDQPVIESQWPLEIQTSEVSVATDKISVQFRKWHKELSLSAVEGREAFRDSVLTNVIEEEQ
Procedure: Methylxanthine N-demethylase activity assay contained, in 1-mL total volume, 0.5 mM methylxanthine, 1 mM NADH, 50 μM Fe(NH4)2(SO4)2, and an appropriate amount of Ndm (0.08-7.5 mg protein, depending on purity of the protein) in 50 mM KPi buffer. Approximately 4 U of partially purified Ccr was added to reaction mixture when assaying Ndm in Phenyl Sepharose and Q Sepharose eluant-fractions (Ccr was not added to the enzyme reaction mixture when assaying Ndm activity in DEAE Sepharose eluant-fractions because Ccr co-eluted with Ndm). The reaction mixture was incubated at 30° C. with 300 rpm shaking on an incubating microplate shaker (VWR). Periodically, a small aliquot was sampled from the reaction mixture and mixed with equal volume of acetonitrile for quantifying concentrations of methylxanthines and N-demethylated products by HPLC. One unit of N-demethylase activity was defined as the consumption of one μmole methylxanthine per minute. When Ndm was coupled with the reductase and ferredoxin components of naphthalene dioxygenase of Pseudomonas sp. strain 9816 (Haigler & Gibson, 1990a; Haigler & Gibson, 1990b), 30 and 100 μg of the respective proteins were used. Spinach ferredoxin reductase and ferredoxin were also substituted for Ccr as described by Subramanian et al. (1979).
Determination of Kinetic Parameters. Apparent kinetic parameters of Ndm were determined by measuring the initial rate of disappearance (vo) of paraxanthine or 7-methylxanthine in 50 mM KPi buffer (pH 7.5) at 30° C. The paraxanthine and 7-methylxanthine concentrations ([S]) used in these experiments were from 20 to 500 μM. Substrates were incubated with Ndm and Ccr under standard conditions for 15 minutes. At 1, 5, 10, and 15 minutes, samples were removed from the reaction mixtures to quantitate substrate concentrations by HPLC. Plots of substrate concentrations against time were used to determine the initial rates of disappearance of substrates which were linear over 15 minutes. The apparent kinetic parameters were determined from Michaelis-Menten plots of Vo against [S] fitted with the equation
Determination of Oxygen Requirement. Oxygen consumption by Ndm during N-demethylation of paraxanthine was determined in a closed reaction vessel equipped with a Clarke-type oxygen electrode (Digitial Modell 0, Rank Brothers Ltd., Cambridge, England). The electrode was calibrated by using glucose oxidase (Sigma) and glucose for consumption of oxygen. Ndm activity assay was performed at 30° C. in a total volume of 1 ml of air-saturated 50 mM KPi buffer (pH 7.5) with 100 μM paraxanthine, 200 μM NADH, 50 μM Fe(NH4)2(SO4)2, 0.2 mg purified Ndm, and 4 U partially purified Ccr. The reaction was initiated by adding Ndm and partially purified Ccr after equilibration of all other reaction components for 3.3 minutes. After 13 minutes, a 100-μL aliquot was withdrawn from the reaction, immediately mixed with equal volume of acetonitrile to stop the enzyme reaction, and analyzed for N-demethylation product by HPLC. Background oxygen consumption, possibly due to NADH oxidase enzyme activity in the partially purified Ccr, was quantitated in control reactions containing all reaction components except paraxanthine.
Formaldehyde Determination. […] Twenty μL Nash reagent was added to 50 μl Ndm reaction sample plus 50 μl acetonitrile. This mixture was incubated at 51° C. for 12 minutes.

NdmA-His6 = target: T2, NdmA-His6 (Pseudomonas putida, UniProt H9N289); experiment: Methylxanthine N-demethylase assay and kinetics, NdmA-His6 with His6-NdmD; type: biochemical, Pseudomonas putida CBB5
T2 construct: made in house; host or cells: E. coli BL21(DE3)
T2 sequence (H9N289 1-351): T1 sequence (H9N289 1-351)
Procedure: Methylxanthine N-demethylase activity assay contained, in 1-ml total volume, 0.5 mM methylxanthine, 1 mM NADH, 50 μM Fe(NH4)2(SO4)2, and an appropriate amount of NdmA-His6 or NdmB-His6 (7.4 μg-2.5 mg protein depending on substrate specificity) in 50 mM KPi buffer (pH 7.5). Approximately 4 U of partially purified reductase, prepared as described previously (Summers et al., 2011) or 59 U of purified His6-NdmD was added to reaction mixture. Catalase from bovine liver (4,000 U) was also added to reactions containing His6-NdmD. The reaction mixture was incubated at 30° C. with 300 rpm shaking on an incubating microplate shaker (VWR, Radnor, Pa.). Periodically, a small aliquot was sampled from the reaction mixture and mixed with equal volume of acetonitrile for quantifying concentrations of methylxanthines and N-demethylated products by HPLC. One unit of N-demethylase activity was defined as the consumption of one […] methylxanthine per minute.
Apparent kinetic parameters of NdmA-His6 and NdmB-His6 were determined by measuring the initial rate of disappearance (vo) of methylxanthines in 50 mM KPi buffer (pH 7.5) at 30° C. The initial substrate concentrations (ESI) used in these experiments were from 25 to 500 μM. Substrates were incubated with His6-NdmD plus either NdmA-His6 or NdmB-His6 under standard conditions for 15 minutes. At 1, 5, 10, and 15 minutes, samples were removed from the reaction mixtures to quantitate substrate concentrations by HPLC. Plots of substrate concentrations against time were used to determine the initial rates of disappearance of substrates which were linear over 15 minutes. The apparent kinetic parameters were determined from Michaelis-Menten plots of vo against [S] fitted with the equation

`Cn1cnc2c1c(=O)[nH]c(=O)n2C` [Theobromine, 3,7-dimethylxanthine] was tested, and the Products identified ([1]; same products at 500 and 200 μM substrate) was 3- & 7-methylxanthine, and xanthine, the “Relative N-demethylase activity” value ([1]; substrate conc. 200 μM) was 80.2 ± 7.8 and the “Relative N-demethylase activity” value ([1]; substrate conc. 500 μM) was 59.8 ± 1.9. The “N-demethylase activity” value (NdmA-His6; NdmA) was “inactive”, the Km (NdmA-His6; NdmA-His6, 30° C., pH 7.5, ∞ where no activity) was “∞” and the “N-demethylation by NdmC fraction” value (NdmC) was “not N-demethylated”.
